ChEMBL document CHEMBL1137670, “First occurrence of an IMP metallo-beta-lactamase in Aeromonas caviae: IMP-19 in an isolate from France” (2007)

Tests used:
[1] = tested on: Acinetobacter baumannii; experiment: Ratio of Kcat to Km of Acinetobacter baumannii AC-54/97 metallo-beta-lactamase IMP-2 expressed in Escherichia coli DH5alpha
[2] = tested on: Acinetobacter baumannii; experiment: Activity of Acinetobacter baumannii AC-54/97 metallo-beta-lactamase IMP-2 expressed in Escherichia coli DH5alpha

Row | Compound | kcat/Km [1] | Km [2] [µM] | kcat [2] [s⁻¹]
1 | C[C@@H](O)[C@H]1C(=O)N2C(C(=O)O)=C(S[C@@H]3CN[C@H](C(=O)N(C)C)C3)[C@H](C)[C@H]12 | 3.3 | 0.3 | 1
2 | CC1(C)S[C@@H]2[C@H](NC(=O)[C@H](N)c3ccc(O)cc3)C(=O)N2[C@H]1C(=O)O | 0.21 | 110 | 23
3 | CC(C)(O/N=C(\C(=O)N[C@@H]1C(=O)N2C(C(=O)[O-])=C(C[n+]3ccccc3)CS[C@H]12)c1csc(N)n1)C(=O)O | 0.19 | 111 | 21
4 | C[C@@H](O)[C@H]1C(=O)N2C(C(=O)O)=C(SCCNC=N)C[C@H]12 | 0.92 | 24 | 22
5 | CO[C@@]1(NC(=O)Cc2cccs2)C(=O)N2C(C(=O)O)=C(COC(N)=O)CS[C@@H]21 | 1 | 7 | 7
6 | CC1(C)S[C@@H]2[C@H](NC(=O)[C@H](C(=O)O)c3ccsc3)C(=O)N2[C@H]1C(=O)O | 0.36 | 700 | 252
